Source: US20100086931A1, “METHOD FOR ASSAYING ACTION OF ANTITUMOR AGENT USING DECREASE IN GENE EXPRESSION LEVEL AS INDEX” (Eisai R&D Management Co., Ltd., priority 2007, published 2010)

Test system: human colon carcinoma cell strain WiDr
Assay: Microarray analysis (Human Genome U133 plus 2.0 array) of mRNA expression in WiDr cells treated with compound A
Type: cell-based
Conditions: 14 nM, 6 h, ratio to control
Protocol: Microarray analysis (Human Genome U133 plus 2.0 array: Affymetrix) was carried out using RNA purified from human colon carcinoma cell strain WiDr treated with 2.8 nM and 14 nM of (8E,12E,14E)-7-((4-Cycloheptylpiperazin-1-yl)carbonyl)oxy-3,6,16,21-tetrahydroxy-6,10,12,16,20-pentamethyl-18,19-epoxytricosa-8,12,14-trien-11-olide (hereinafter also referred to as “compound A”) for six hours.
WiDr cells were first suspended in RPMI1640 medium (containing 10% FBS, penicillin, and streptomycin) and seeded in a 10 cm dish (2×10^6 cells/dish). After an overnight culture in an incubator with 5% carbon dioxide gas at 37° C., the medium was changed with medium containing 2.8 nM and 14 nM of compound A or containing vehicle alone. After cultured additional six hours, TRI reagent (SIGMA) was added to cells, and the cells were harvested. RNA was purified in accordance with the protocol of TRI reagent, followed by further purification with RNeasy (QIAGEN). Absorbance at 260 nm was measured to quantify an amount of RNA.
Subsequently, single stranded cDNA synthesis, double stranded cDNA synthesis, biotin-labeled cRNA synthesis, and cRNA fragmentation in order were carried out from 5-10 μg (WiDr 10 μg, PBMC 5 μg) of total RNA from the control cells and the treated cells, by using One-Cycle Target Labeling and Control Reagents (Affymetrix). cRNA probe was used for hybridization with Human Genome U133 Plus 2.0 Array (Affymetrix). The array was then washed and stained, and luminescence intensity was measured by a scanner.
The RMA method was applied to 33 of .cel files obtained in the microarray experiment and log signal intensity at a gene level normalized with log signal intensity at a probe level was obtained. By subtracting the mean between control 1 and control 3 from the mean between log signal intensity 1 and log signal intensity 3 for each case, the log signal intensity was converted into a log signal ratio to the control. A t-test was conducted between each log signal intensity and control, and candidate genes were narrowed down in the basis of a p-value, a log signal ratio, and a signal value. Specifically, genes showing that the P value was 5% or less; the expression level in the untreated (control) is 100 or more by signal value; and the expression level when treated with both 2.8 nM and 14 nM of compound A is, compared to the control, 25% or less, were picked out. The software used is R2.2.1 (http://www.r-project.org/), affy package 1.8.1 (http://www.bioconductor.org).
Genes showing that, by the treatment with compound A, the P value was 5% or less; the expression level in the untreated (control) is 100 or more by signal value; and the expression level when treated with both 2.8 nM and 14 nM of compound A is, compared to the control, 25% or less, and results thereof were shown in Table 1. Probe ID used in Table 1 represents Human Genome U133 Plus 2.0 Array Probeset ID. In Table 1, for each gene evaluated, gene name (Gene Name), abbreviated name (Gene Symbol), accession number (Accession), alias name (Synonym), Probe set number in Human Genome U133 Plus 2.0 Array (Human Genome U133 Plus 2.0 Array Probeset ID), the expression level upon the six-hour treatment with 2.8 nM of E7107 (2.8 nM (6 h)), and the expression level upon the six-hour treatment with 14 nM of E7107 (14 nM (6 h)) were respectively shown.

CCC(O)C(C)C1OC1CC(C)(O)/C=C/C=C(\C)C1OC(=O)CC(O)CCC(C)(O)C(OC(=O)N2CCN(C3CCCCCC3)CC2)/C=C/C1C (stereo not drawn) [E7107, (8E,12E,14E)-7-((4-Cycloheptylpiperazin-1-yl)carbonyl)oxy-3,6,16,21-tetrahydroxy-6,10,12,16,20-pentamethyl-18,19-epoxytricosa-8,12,14-trien-11-olide]
0.14: C1orf79 mRNA expression level (223774_at) | CASC5 mRNA expression level (228323_at) | IXL mRNA expression level (225708_at) | MND1 mRNA expression level (223700_at) | PPWD1 mRNA expression level (213483_at) | SMEK2 mRNA expression level (226230_at) | STAMBPL1 mRNA expression level (227606_s_at) | STXBP3 mRNA expression level (203310_at)
0.18: FGF19 mRNA expression level (223761_at) | GRHL1 mRNA expression level (222830_at) | METTL4 mRNA expression level (219698_s_at) | PCGF1 mRNA expression level (210023_s_at) | SLC17A5 mRNA expression level (223441_at) | mRNA expression level, probeset 228106_at (gene name not given)
0.22: ERCC3 mRNA expression level (202176_at) | FAM86C mRNA expression level (65585_at) | MKRN1 mRNA expression level (201285_at) | PIK3C3 mRNA expression level (204297_at) | RPS6KC1 mRNA expression level (218909_at) | SLC25A19 mRNA expression level (223222_at) | TMEM177 mRNA expression level (218897_at) | Transcribed locus mRNA expression level (230177_at)
0.23: C7orf49 mRNA expression level (220949_s_at) | TRIP4 mRNA expression level (203732_at)
0.24: MYOHD1 mRNA expression level (225947_at) | SMUG1 mRNA expression level (218685_s_at) | SYTL2 mRNA expression level (232914_s_at)
0.11: FCHO2 mRNA expression level (228220_at) | KLHL12 mRNA expression level (225068_at) | LIPG mRNA expression level (219181_at) | MASTL mRNA expression level (228468_at) | RBMS1 mRNA expression level (209868_s_at) | TSEN2 mRNA expression level (219581_at) | TUBGCP3 mRNA expression level (203690_at)
0.16: KCNE3 mRNA expression level (227647_at) | LOC124512 mRNA expression level (225808_at) | WDR26 mRNA expression level (218107_at)
0.08: CDC6 mRNA expression level (203967_at) | PAXIP1 mRNA expression level (212825_at) | SHPRH mRNA expression level (226366_at) | WDR67 mRNA expression level (214061_at)
0.04: C7orf23 mRNA expression level (204215_at) | RFC4 mRNA expression level (204023_at) | ZC3HAV1L mRNA expression level (228280_at)
0.20: ADPRHL2 mRNA expression level (223097_at) | ELL3 mRNA expression level (219518_s_at) | INTS7 mRNA expression level (222250_s_at) | NPC1 mRNA expression level (202679_at)
0.03: IREB2 mRNA expression level (225892_at)
0.13: CARD10 mRNA expression level (210026_s_at) | CDC7 mRNA expression level (204510_at) | NR2C1 mRNA expression level (204791_at) | RBM17 mRNA expression level (224780_at) | Transcribed locus mRNA expression level (230098_at)
0.25: FLJ20628 mRNA expression level (221229_s_at) | SLC37A1 mRNA expression level (218928_s_at) | ZCCHC6 mRNA expression level (220933_s_at)
0.21: C17orf80 mRNA expression level (223351_at) | FANCL mRNA expression level (218397_at) | HDAC4 mRNA expression level (204225_at) | NIN mRNA expression level (225921_at) | NUPL2 mRNA expression level (204003_s_at) | TRIM31 mRNA expression level (210159_s_at)
0.06: E2F7 mRNA expression level (228033_at) | FKSG44 mRNA expression level (227964_at) | MCM10 mRNA expression level (220651_s_at) | PLEKHA5 mRNA expression level (220952_s_at) | SFXN1 mRNA expression level (230069_at) | UNC50 mRNA expression level (203583_at)
0.09: C20orf112 mRNA expression level (225224_at) | CLDND1 mRNA expression level (208925_at) | JAGN1 mRNA expression level (223104_at) | JUB mRNA expression level (225806_at) | KIAA0859 mRNA expression level (212405_s_at) | KIF21A mRNA expression level (226003_at) | POLD3 mRNA expression level (212836_at) | TAF4 mRNA expression level (213090_s_at) | TTC4 mRNA expression level (46167_at)
0.05: BPTF mRNA expression level (232909_s_at) | C5orf28 mRNA expression level (219029_at) | CCNE2 mRNA expression level (205034_at) | EHBP1 mRNA expression level (212653_s_at) | FBXL5 mRNA expression level (209004_s_at) | ZMIZ1 mRNA expression level (212124_at)
0.15: ATP6V0A2 mRNA expression level (205704_s_at) | C6orf136 mRNA expression level (227455_at) | C7orf36 mRNA expression level (223433_at) | DNAJC16 mRNA expression level (212908_at) | KIAA0776 mRNA expression level (212633_at) | NOC3L mRNA expression level (218889_at) | PHACTR4 mRNA expression level (226823_at) | ZKSCAN1 mRNA expression level (214670_at)
0.19: C1orf63 mRNA expression level (209006_s_at) | C1orf82 mRNA expression level (222893_s_at) | C15orf40 mRNA expression level (1552310_at) | KIAA0323 mRNA expression level (212355_at) | KIN mRNA expression level (205664_at) | METTL3 mRNA expression level (209265_s_at) | mRNA expression level, probeset 235436_at (gene name not given)
0.12: ARMC8 mRNA expression level (203486_s_at) | CLIP1 mRNA expression level (201975_at) | Full-length cDNA clone CS0DL007YI24 of B cells (Ramos cell line) mRNA expression level (226648_at) | KIF2C mRNA expression level (211519_s_at) | NUPL1 mRNA expression level (223984_s_at) | ORC5L mRNA expression level (204957_at) | RBBP6 mRNA expression level (212783_at) | REPS1 mRNA expression level (224366_s_at) | Transcribed locus, strongly similar to NP_002194.1 integrin alpha 2 precursor mRNA expression level (227314_at) | Transcribed locus, strongly similar to NP_689873.1 mRNA expression level (228638_at) | ZNF518 mRNA expression level (204291_at)
0.10: ATP2B1 mRNA expression level (212930_at) | FRY mRNA expression level (204072_s_at) | MLL2 mRNA expression level (227527_at) | PHF20L1 mRNA expression level (226942_at) | POLR3E mRNA expression level (222490_at) | RAD54B mRNA expression level (219494_at) | Transcribed locus, moderately similar to XP_518244.1 mRNA expression level (235046_at)
0.07: DAPK1 mRNA expression level (203139_at) | EVI1 mRNA expression level (226420_at) | LOC51315 mRNA expression level (218303_x_at) | PPM1B mRNA expression level (209296_at) | RIF1 mRNA expression level (226821_at) | TNS3 mRNA expression level (217853_at)
0.17: ANGEL2 mRNA expression level (221825_at) | ATP2A2 mRNA expression level (212361_s_at) | C12orf32 mRNA expression level (225837_at) | CCDC14 mRNA expression level (225017_at) | CDNA FLJ34214 fis, clone FCBBF3021807 mRNA expression level (227087_at) | NCOA5 mRNA expression level (225145_at) | PMS1 mRNA expression level (213677_s_at) | Transcribed locus mRNA expression level (235609_at) | WBP4 mRNA expression level (203598_s_at)
